Laboratory results: US8632612B2, “Compositions for dyeing keratin fibers” (Segetis, Inc., priority 2010, dated 2014)

Key:
[1] = Dissolution of hair dye moieties in neat ketal solvents and storage at room temperature (Example 7); assay type: physicochemical
Excerpt: The respective hair dye compositions and their methods of manufacturing are discussed in detail below.

[2] = Saturated solubility of oxidation dye intermediates in hair dye formulations (UV-Vis against calibration curve); details: 10 minutes stirring, three replications

dissolution in ketal ([1]; 10% solids in Bu-LGK at 80° C. with agitation) | dissolution in ketal ([1]; 10% solids in Et-LGK at 80° C. with agitation) | dissolution in ketal ([1]; 10% solids in Et-LPK at room temperature with agitation) | dissolution in ketal ([1]; 5% solids in Et-LGK at room temperature) | Structure (SMILES) | dissolution in ketal ([1]; 1% solids in Et-LPK at 80° C.) | solubility after storage ([1]; 5% and 1% solids in Et-LPK, storage at room temperature) | dissolution in ketal ([1]; 5% solids in Bu-LGK at 80° C.) | solubility after storage ([1]; 5% solids in Et-LGK (dissolved at 80° C.), 24 hours of storage at room temperature) | dissolution in ketal ([1]; 5% solids in Et-LGK at 80° C.) | dissolution in ketal ([1]; 5% solids in Et-LPK at 80° C.) | dissolution in ketal ([1]; 25% solids in Bu-LGK at 80° C.) | Average Solubility ([2]; in formulation 5A (7% Et-LGK), pH 10.2, 27° C.) | Average Solubility ([2]; in formulation 5B (7% Et-LGK), pH 8.5, 27° C.) | Average Solubility ([2]; in formulation 6A (7% Et-LPK), pH 10.2, 27° C.) | Average Solubility ([2]; in formulation 6B (7% Et-LPK), pH 8.5, 27° C.)
– | – | – | – | Nc1ccc(N)cc1 [p-phenylenediamine] | did not completely dissolve | a precipitant remained | dissolved | still soluble | dissolved | did not completely dissolve | partially dissolved | 0.07 % wt./wt. | 0.07 % wt./wt. | 0 % wt./wt. | <0.01 % wt./wt.
dissolved | dissolved | dissolved | – | Oc1cccc(O)c1 [Resorcinol] | – | – | – | – | – | – | – | – | – | – | –
– | – | – | dissolved | Nc1cccc(O)c1 [m-Aminophenol] | – | – | – | – | – | dissolved | – | – | – | – | –
